From a compilation of properties of binary mixtures (doi:10.1016/j.molliq.2017.04.129)

Test: xn = mol fraction of the nth substance listed
Conditions: 100 kPa

**Q.** With `COCCOCCO` + CCCC[n+]1ccn(C)c1.O=S(=O)([O-])C(F)(F)F as the compound, how does the speed of sound (298.15 K, x2 = 0) read?
**A.** Its speed of sound is 1415.8 m/s.

**Q.** What about the speed of sound (298.15 K, x2 = 0.1) of the same compound?
**A.** Its speed of sound is 1423.6 m/s.

**Q.** And the speed of sound (298.15 K, x2 = 0.2056)?
**A.** The speed of sound was 1420.5 m/s.

**Q.** What about the speed of sound (298.15 K, x2 = 0.3064) of the same compound?
**A.** The speed of sound was 1415.5 m/s.

**Q.** What about the speed of sound (298.15 K, x2 = 0.3986) of the same compound?
**A.** Its speed of sound is 1410.7 m/s.

**Q.** What about the speed of sound (298.15 K, x2 = 0.4904) of the same compound?
**A.** The speed of sound was 1406.3 m/s.

**Q.** And the speed of sound (298.15 K, x2 = 0.6945)?
**A.** Its speed of sound is 1398.8 m/s.

**Q.** And the speed of sound (298.15 K, x2 = 0.7795)?
**A.** The speed of sound was 1396.8 m/s.

**Q.** What about the speed of sound (298.15 K, x2 = 0.9015) of the same compound?
**A.** The speed of sound was 1394.5 m/s.

**Q.** What about the speed of sound (303.15 K, x2 = 0.1) of the same compound?
**A.** Its speed of sound is 1408.2 m/s.

**Q.** And the speed of sound (303.15 K, x2 = 0.2056)?
**A.** The speed of sound was 1406.1 m/s.

**Q.** And the speed of sound (303.15 K, x2 = 0.3064)?
**A.** The speed of sound was 1401.6 m/s.

**Q.** And the speed of sound (303.15 K, x2 = 0.3986)?
**A.** The speed of sound was 1397.5 m/s.

**Q.** What about the speed of sound (303.15 K, x2 = 0.5981) of the same compound?
**A.** Its speed of sound is 1390 m/s.

**Q.** What about the speed of sound (303.15 K, x2 = 0.6945) of the same compound?
**A.** The speed of sound was 1386.9 m/s.

**Q.** What about the speed of sound (303.15 K, x2 = 0.9015) of the same compound?
**A.** Its speed of sound is 1383.3 m/s.

**Q.** And the speed of sound (308.15 K, x2 = 0.1)?
**A.** Its speed of sound is 1392.4 m/s.

**Q.** And the speed of sound (308.15 K, x2 = 0.2056)?
**A.** Its speed of sound is 1391.5 m/s.

**Q.** And the speed of sound (308.15 K, x2 = 0.3064)?
**A.** Its speed of sound is 1387.8 m/s.

**Q.** And the speed of sound (308.15 K, x2 = 0.3986)?
**A.** The speed of sound was 1384.4 m/s.

**Q.** What about the speed of sound (308.15 K, x2 = 0.4904) of the same compound?
**A.** Its speed of sound is 1381 m/s.

**Q.** And the speed of sound (308.15 K, x2 = 0.5981)?
**A.** Its speed of sound is 1378 m/s.

**Q.** What about the speed of sound (308.15 K, x2 = 0.6945) of the same compound?
**A.** The speed of sound was 1375.4 m/s.

**Q.** What about the speed of sound (308.15 K, x2 = 0.7795) of the same compound?
**A.** The speed of sound was 1374 m/s.

**Q.** And the speed of sound (308.15 K, x2 = 0.9015)?
**A.** The speed of sound was 1372 m/s.

**Q.** What about the speed of sound (313.15 K, x2 = 0) of the same compound?
**A.** The speed of sound was 1366.4 m/s.

**Q.** What about the speed of sound (313.15 K, x2 = 0.1) of the same compound?
**A.** The speed of sound was 1376.8 m/s.

**Q.** And the speed of sound (313.15 K, x2 = 0.2056)?
**A.** The speed of sound was 1376.9 m/s.

**Q.** And the speed of sound (313.15 K, x2 = 0.3986)?
**A.** Its speed of sound is 1371.3 m/s.

**Q.** What about the speed of sound (313.15 K, x2 = 0.4904) of the same compound?
**A.** Its speed of sound is 1368.4 m/s.

**Q.** And the speed of sound (313.15 K, x2 = 0.7795)?
**A.** The speed of sound was 1362.6 m/s.

**Q.** What about the speed of sound (313.15 K, x2 = 0.9015) of the same compound?
**A.** Its speed of sound is 1360.9 m/s.

**Q.** What about the speed of sound (318.15 K, x2 = 0.4904) of the same compound?
**A.** Its speed of sound is 1356 m/s.

**Q.** And the speed of sound (318.15 K, x2 = 0.5981)?
**A.** The speed of sound was 1354 m/s.

**Q.** What about the speed of sound (318.15 K, x2 = 0.6945) of the same compound?
**A.** Its speed of sound is 1352.2 m/s.

**Q.** And the speed of sound (318.15 K, x2 = 0.7795)?
**A.** The speed of sound was 1351.2 m/s.

**Q.** What about the speed of sound (318.15 K, x2 = 0.9015) of the same compound?
**A.** The speed of sound was 1349.9 m/s.

**Q.** And the speed of sound (323.15 K, x2 = 0)?
**A.** The speed of sound was 1333.4 m/s.

**Q.** What about the speed of sound (323.15 K, x2 = 0.1) of the same compound?
**A.** The speed of sound was 1345.6 m/s.

**Q.** What about the speed of sound (323.15 K, x2 = 0.2056) of the same compound?
**A.** The speed of sound was 1348 m/s.

**Q.** What about the speed of sound (323.15 K, x2 = 0.3064) of the same compound?
**A.** The speed of sound was 1346.9 m/s.

**Q.** What about the speed of sound (323.15 K, x2 = 0.3986) of the same compound?
**A.** Its speed of sound is 1345.5 m/s.

**Q.** And the speed of sound (323.15 K, x2 = 0.4904)?
**A.** The speed of sound was 1343.6 m/s.

**Q.** What about the speed of sound (323.15 K, x2 = 0.6945) of the same compound?
**A.** The speed of sound was 1340.7 m/s.

**Q.** What about the speed of sound (323.15 K, x2 = 0.9015) of the same compound?
**A.** Its speed of sound is 1338.9 m/s.

**Q.** For `CCCC[n+]1ccn(C)c1.O=S(=O)([O-])C(F)(F)F` + COCCOCCO, which speed of sound (298.15 K, x1 = 1) is on record?
**A.** The speed of sound was 1392.8 m/s.

**Q.** And the speed of sound (308.15 K, x1 = 1)?
**A.** Its speed of sound is 1370.6 m/s.

**Q.** And the speed of sound (313.15 K, x1 = 1)?
**A.** The speed of sound was 1359.6 m/s.
